Some test systems named below: LOX IMVI melanoma; BT-549 breast; 786-0 renal; NCI-H226 lung; A549 NSCLC; IGROV1 ovarian; SF-295 CNS; MDA-MB-231 breast; EKVX NSCLC; T-47D breast; OVCAR-4 ovarian; SF-539 CNS; NCI/ADR-RES ovarian; RPMI-8226 leukemia; COLO 205 colon.
Experiment in all cases: NCI anticancer screen, dose series, 48 h

SMILES strings stand for the structures.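 Step 1: Grow cells in 96-well plates. Step 2: Expose to compound for 48 hours at 5 concentrations. Step 3: Interpolate endpoints linearly; if unreached, use highest concentration. TGI denotes the concentration required for complete inhibition of growth.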

With `Cc1cc2nc3c(C(O)CO)nn(-c4ccccc4)c3nc2cc1C` (centres undefined), the TGI in the assay on LOX IMVI melanoma was 66.3 µM; in the assay with BT-549 breast it was 42.8 µM; in the assay with 786-0 renal it was 42.8 µM; in the assay with NCI-H226 lung it was 98.2 µM; in the assay on A549 NSCLC, 48.5 µM; with IGROV1 ovarian, 43.9 µM. Also, the TGI is 35.7 µM in the assay with SF-295 CNS; 55 µM in the assay with MDA-MB-231 breast; 63.4 µM in the assay with EKVX NSCLC; 91.5 µM in the assay on T-47D breast; 53.4 µM in the assay on OVCAR-4 ovarian; 50.2 µM in the assay on SF-539 CNS. Moreover, the figures for the TGI in the assay on NCI/ADR-RES ovarian and with RPMI-8226 leukemia were 44.7 µM and greater than 100 µM, respectively.

On to `C=CCC1(O)c2cccc(O)c2C(=O)c2cccc(O)c21` (centres undefined), for which the TGI in the assay on LOX IMVI melanoma is 30.9 µM; with BT-549 breast it was 47.4 µM; with 786-0 renal, 46.1 µM; in the assay on NCI-H226 lung, 74.3 µM; with A549 NSCLC, 88.1 µM; in the assay with IGROV1 ovarian, greater than 100 µM. For the same compound, the TGI is 38.3 µM with SF-295 CNS; 53.4 µM with MDA-MB-231 breast; 60.1 µM in the assay with EKVX NSCLC; 30.2 µM in the assay on T-47D breast; greater than 100 µM in the assay with OVCAR-4 ovarian; greater than 100 µM with SF-539 CNS. For the same compound, the TGI in the assay with NCI/ADR-RES ovarian stood at 40.2 µM; with RPMI-8226 leukemia it was 76.1 µM.

On to `CC1(C)N=C(N)N=C(N)N1c1ccc(CCCCc2ccc(Cl)cc2Cl)cc1`, for which the TGI is 16.4 µM with LOX IMVI melanoma; 6.3 µM in the assay on BT-549 breast; 4.88 µM in the assay with COLO 205 colon; 15.3 µM in the assay on 786-0 renal; 14.7 µM in the assay with A549 NSCLC; 10 µM with IGROV1 ovarian. Moreover, the TGI was 22 µM in the assay on SF-295 CNS; 16.6 µM with MDA-MB-231 breast; 45.1 µM with EKVX NSCLC; 23.9 µM in the assay on T-47D breast; 13.5 µM in the assay on OVCAR-4 ovarian; 8.74 µM in the assay with SF-539 CNS. The TGI was greater than 100 µM in the assay on NCI/ADR-RES ovarian and 19.2 µM with RPMI-8226 leukemia.

`CO/N=C1/C(n2[nH]c(=O)n(-c3ccccc3)c2=O)C2C=CC1n1c(=O)n(-c3ccccc3)c(=O)n12` (centres undefined): the TGI in the assay on LOX IMVI melanoma, in the assay on BT-549 breast, in the assay on COLO 205 colon, with 786-0 renal, in the assay with NCI-H226 lung and in the assay on A549 NSCLC was greater than 100 µM in each case. The TGI in the assay on IGROV1 ovarian, in the assay with MDA-MB-231 breast, in the assay on EKVX NSCLC, in the assay with T-47D breast, in the assay with OVCAR-4 ovarian and in the assay with SF-539 CNS was greater than 100 µM in each case. For the same compound, the TGI in the assay with NCI/ADR-RES ovarian and with RPMI-8226 leukemia was greater than 100 µM each time.

On to `CNC(=O)CNC(=O)CCC(=O)N(C)C`, for which the TGI in the assay with LOX IMVI melanoma, in the assay with BT-549 breast, in the assay with COLO 205 colon, in the assay on 786-0 renal, in the assay on NCI-H226 lung and in the assay on A549 NSCLC was greater than 100 µM throughout. The TGI in the assay with IGROV1 ovarian, with SF-295 CNS, with MDA-MB-231 breast, with EKVX NSCLC, in the assay on T-47D breast and with SF-539 CNS was greater than 100 µM each time. The TGI in the assay with NCI/ADR-RES ovarian and in the assay on RPMI-8226 leukemia was greater than 100 µM throughout.

For the compound `C=CCOc1ccc(C2c3c([nH][nH]c3=O)CC(C)(O)C2C(=O)OC)cc1OC` (centres undefined), the TGI with LOX IMVI melanoma, in the assay with BT-549 breast, in the assay on COLO 205 colon, in the assay on 786-0 renal, in the assay on A549 NSCLC and in the assay on IGROV1 ovarian was greater than 100 µM each time. Also, the TGI in the assay with SF-295 CNS, with MDA-MB-231 breast, in the assay on EKVX NSCLC, in the assay with T-47D breast, in the assay on OVCAR-4 ovarian and in the assay with SF-539 CNS was greater than 100 µM in each case. In addition, the TGI in the assay on NCI/ADR-RES ovarian and in the assay on RPMI-8226 leukemia was greater than 100 µM in each case.

On to `c1ccc2c(Cc3c[nH]c4ccccc34)c[nH]c2c1`, for which the TGI in the assay with LOX IMVI melanoma turned out to be 49.8 µM; in the assay with BT-549 breast, 36.8 µM; with COLO 205 colon it was 27.8 µM; in the assay with 786-0 renal, 33.6 µM; in the assay with NCI-H226 lung, 22.5 µM; in the assay with A549 NSCLC, 57 µM. For the same compound, the TGI stood at 30.7 µM with IGROV1 ovarian; 43.8 µM with SF-295 CNS; 31.5 µM in the assay on MDA-MB-231 breast; 32.5 µM in the assay on EKVX NSCLC; 63.7 µM in the assay with T-47D breast; 35.3 µM with OVCAR-4 ovarian. Also, the TGI in the assay on NCI/ADR-RES ovarian is 62 µM; with RPMI-8226 leukemia it was 68.8 µM.

For `N#C[C@](CO)(NC(=O)OCc1ccccc1)C(F)F`, the TGI in the assay with LOX IMVI melanoma, in the assay with BT-549 breast, in the assay with COLO 205 colon, with 786-0 renal, with NCI-H226 lung and in the assay with A549 NSCLC was greater than 100 µM throughout. In addition, the TGI with IGROV1 ovarian, in the assay on SF-295 CNS, in the assay with MDA-MB-231 breast, in the assay with EKVX NSCLC, in the assay with T-47D breast and in the assay with OVCAR-4 ovarian was greater than 100 µM throughout. In addition, the TGI in the assay on NCI/ADR-RES ovarian and in the assay on RPMI-8226 leukemia was greater than 100 µM each time.

In the case of `O=C(/C(Cl)=C/c1ccccc1)c1ccccc1`, the TGI was 8.8 µM in the assay with LOX IMVI melanoma; 6.49 µM in the assay on BT-549 breast; 3.37 µM in the assay on 786-0 renal; 18.1 µM with NCI-H226 lung; 34.1 µM in the assay with A549 NSCLC; 37.6 µM with SF-295 CNS. Also, the TGI in the assay with MDA-MB-231 breast was 20.6 µM; in the assay with EKVX NSCLC, 25.6 µM; in the assay with T-47D breast it was 27.1 µM; with OVCAR-4 ovarian it was 16.9 µM; with SF-539 CNS, 13.1 µM; with NCI/ADR-RES ovarian, 19.4 µM. The same compound had a TGI in the assay on RPMI-8226 leukemia greater than 46.2 µM.

In the case of `Cc1ccnc2c1c(=O)c1ccccc1n2C`, the TGI was greater than 100 µM in the assay with LOX IMVI melanoma; 81.9 µM in the assay on BT-549 breast; greater than 100 µM in the assay with COLO 205 colon; greater than 100 µM in the assay with 786-0 renal; greater than 100 µM with NCI-H226 lung; greater than 100 µM with IGROV1 ovarian. The TGI with SF-295 CNS, in the assay on MDA-MB-231 breast, with EKVX NSCLC, in the assay with T-47D breast, with OVCAR-4 ovarian and with SF-539 CNS was greater than 100 µM throughout. For the same compound, the TGI in the assay with NCI/ADR-RES ovarian and in the assay with RPMI-8226 leukemia was greater than 100 µM throughout.

These data come from PubChem BioAssay (NCI).
